Assay results as given in US8859529B2, “Compounds for the treatment of inflammatory disorders” (Merck Sharp & Dohme Corp., priority 2008, dated 2014).

How the values were obtained:
[1] = test system: TNF-α production from human whole blood; assay: Inhibition of TNF-α production from human whole blood (hWBA); assay type: cell-based; conditions: human whole blood diluted 1:1, 1 h pre-incubation, LPS, 3.5 h, TNF-α by ELISA; N/A = Not Active
Method: The compounds' ability to inhibit TACE activity can also be determined in human whole blood using the assay conditions described n Example 15 below.
Human whole blood was diluted 1:1 with serum free medium (RPMI, L-glutamine, Pen-Strep, HEPES) and incubated with a test compound in a final volume of 360 μl for 1 h at 37° C. Forty microliters of LPS (10 μg/mL) was then added. Supernatant was collected after 3.5 h incubation and the concentration of TNF-α was determined by ELISA (R&D Systems). The concentration of the test compound which inhibits 50% of the amount of TNF-α from the untreated control was determined.

[2] = Area under the curve determinations of plasma levels in rats (rrAUC); assay type: in vivo; conditions: rapid rat AUC of the drug (parent) in plasma; oral 10 mg/kg, fasted rats, blood 0.5-6 h post-dosing
Method: To gain insight into the pharmacokinetic properties of the compounds of formula (I), plasma levels of the compounds in rats were determined according to the protocol described in Korfmacher, W. A,; Cox, K. A.; Ng, K. J.; Veals, J.; Hsieh, Y.; Wainhaus, S.; Broske, L; Prelusky, D.; Nomeir, A.; White, R. E. Rapid Commun. Mass Spectrorn, 2001, 15, 335. Briefly, rats, after an overnight fast, were dosed orally with the test compound at a dose of 10 mg/kg in a 5 mL/kg dose volume. Blood was collected at 0.5, 1, 2, 3, 4, and 6 h post-dosing. Mass spectrometry using high performance liquid chromatography was used to identify and measure the concentrations of the test compounds in the plasma at the various time points. The parent ion of each test compound was used to identify and quantitate the compounds in plasma.

Row | SMILES | IC50 [1] | PK (rrAUC) parent [2]
1 | COc1ccc2c(c1)C(=O)N(C[C@@]1(c3cc4nc(Nc5cccnc5)ccc4o3)NC(=O)N(COC(=O)C(C)(C)C)C1=O)C2 [Compound 34] | 1330 nM | 0.094 µM·h
2 | COc1ccc2c(c1)C(=O)N(C[C@@]1(c3cc4ncccc4o3)NC(=O)N(C(C)C)C1=O)C2 [Compound 51] | 7150 nM | 0.37 µM·h
3 | COc1ccc2c(c1)C(=O)N(C[C@@]1(c3cc4cnccc4o3)NC(=O)N(C(C)OC(=O)OC3CCOCC3)C1=O)C2 (stereo partly shown) [Compound 61] | 685 nM | 0 µM·h
4 | COc1ccc2c(c1)C(=O)N(C[C@@]1(c3cc4cnccc4o3)NC(=O)N(COC(=O)OCC3COCO3)C1=O)C2 (stereo partly shown) [Compound 63.1] | 449 nM | 0 µM·h
5 | CCOC(=O)[C@H](C)OC(=O)OCN1C(=O)N[C@@](CN2Cc3ccc(OC)cc3C2=O)(c2cc3cnccc3o2)C1=O [Compound 63.2] | 738 nM | 0 µM·h
6 | COc1ccc2c(c1)C(=O)N(C[C@@]1(c3cc4cnccc4o3)NC(=O)N(COC(=O)OC3CCN(C)CC3)C1=O)C2 [Compound 63.3] | 1400 nM | 13.539 µM·h
7 | COc1ccc2c(c1)C(=O)N(C[C@@]1(c3cc4cnccc4o3)NC(=O)N(COC(=O)OCCN(C)C)C1=O)C2 [Compound 63.4] | 427 nM | 1.604 µM·h
8 | COc1ccc2c(c1)C(=O)N(C[C@@]1(c3cc4ncccc4o3)NC(=O)N(COC(=O)c3ccccc3OC(C)=O)C1=O)C2 [Compound 65] | 560 nM | 4.426 µM·h
9 | COc1ccc2c(c1)C(=O)N(C[C@@]1(c3cc4cnccc4o3)NC(=O)N(COC(=O)c3cccnc3)C1=O)C2 [Compound 67] | 504 nM | 3.448 µM·h
10 | COc1ccc2c(c1)C(=O)N(C[C@@]1(c3cc4cnccc4o3)NC(=O)N(COC(=O)N3CCN(C)CC3)C1=O)C2 [Compound 68] | 1310 nM | 13.539 µM·h
11 | COc1ccc2c(c1)C(=O)N(C[C@@]1(c3cc4cnccc4o3)NC(=O)N(CN(C)C(=O)C(C)(C)C)C1=O)C2 [Compound 76.2] | 754 nM | 0.31 µM·h
12 | COc1ccc2c(c1)C(=O)N(C[C@]1(c3cc4cnccc4o3)C(=O)N(COC(=O)c3ccccc3OC(C)=O)C(=O)N1C(C)=O)C2 [Compound 83] | 931 nM | 0 µM·h
13 | COc1ccc2c(c1)C(=O)N(C[C@]1(c3cc4cnccc4o3)C(=O)N(COC(=O)OCC3COCO3)C(=O)N1C(=O)OCC1COCO1)C2 (stereo partly shown) [Compound 86] | 5410 nM | 0.056 µM·h

Now those with a lower IC50 [1], led by results:

Row | IC50 [1] | PK (rrAUC) parent [2] | SMILES
14 | 199 nM | 0 µM·h | COc1ccc2c(c1F)C(=O)N(C[C@@]1(c3cc4cc(-c5cc(=O)[nH]c(N)n5)ccc4o3)NC(=O)N(COC(=O)C(C)(C)C)C1=O)C2 [Compound 29]
15 | 224 nM | 0.334 µM·h | COc1ccc2c(c1)C(=O)N(C[C@@]1(c3cc4nc(N5C[C@H](O)CC5=O)ccc4o3)NC(=O)N(COC(=O)C(C)(C)C)C1=O)C2 [Compound 31]
16 | 375 nM | 0 µM·h | COc1ccc2c(c1)C(=O)N(C[C@@]1(c3cc4cc(-c5cc(=O)[nH]c(N)n5)cnc4o3)NC(=O)N(COC(=O)C(C)(C)C)C1=O)C2 [Compound 33]
17 | 244 nM | 4.316 µM·h | COc1ccc2c(c1)C(=O)N(C[C@@]1(c3cc4cnccc4o3)NC(=O)N(COC(=O)[C@H](N)C(C)C)C1=O)C2 [Compound 35.3]
18 | 171 nM | 0 µM·h | COc1ccc2c(c1F)C(=O)N(C[C@@]1(C#Cc3cncc(NC(=O)C4CCN(C)CC4)c3)NC(=O)N(COC(=O)C(C)(C)C)C1=O)C2 [Compound 36]
19 | 148 nM | 0 µM·h | COc1ccc2c(c1F)C(=O)N(C[C@@]1(c3cc4nc(N5C[C@H](O)CC5=O)ccc4o3)NC(=O)N(COC(=O)C(C)(C)C)C1=O)C2 [Compound 37]
20 | 94 nM | 1.736 µM·h | COc1ccc2c(c1F)C(=O)N(C[C@@]1(c3cc4nc(N5C[C@@H](O)CC5=O)ccc4o3)NC(=O)N(COC(=O)C(C)(C)C)C1=O)C2 [Compound 38]
21 | 241 nM | 0.927 µM·h | CCOc1ccc2c(c1F)C(=O)N(C[C@@]1(c3cc4nc(N5CCN(CC)CC5)ccc4o3)NC(=O)N(COC(=O)C(C)(C)C)C1=O)C2 [Compound 39]
22 | 336 nM | 0 µM·h | COc1ccc2c(c1)C(=O)N(C[C@@]1(C#Cc3ccc(-c4nc(-c5cnn(C)c5)ccc4OC(=O)C(C)(C)C)cc3)NC(=O)N(COC(=O)C(C)(C)C)C1=O)C2 [Compound 43]
23 | 281 nM | 0 µM·h | COc1ccc2c(c1F)C(=O)N(C[C@@]1(C#Cc3ccc(-c4nc(-c5cnn(C)c5)ccc4OC(=O)C(C)(C)C)c(F)c3)NC(=O)N(COC(=O)C(C)(C)C)C1=O)C2 [Compound 44]
24 | 184 nM | 13.539 µM·h | COc1ccc2c(c1)C(=O)N(C[C@@]1(c3cc4cnccc4o3)NC(=O)N(COC(=O)OC3CCOCC3)C1=O)C2 [Compound 59]
25 | 250 nM | 0 µM·h | COc1ccc2c(c1)C(=O)N(C[C@@]1(c3cc4cnccc4o3)NC(=O)N(COC(=O)OC(C)C)C1=O)C2 [Compound 62]
26 | 169 nM | 5.393 µM·h | COc1ccc2c(c1F)C(=O)N(C[C@@]1(c3cc4cc5c(c(F)c4o3)C(=O)NC5)NC(=O)N(COC(=O)c3ccccc3)C1=O)C2 [Compound 64]
